Measured values published in PMC4684245, “Diversity of ABBA Prenyltransferases in Marine Streptomyces sp. CNQ-509: Promiscuous Enzymes for the Biosynthesis of Mixed Terpenoid Compounds” (PLoS ONE, 2015).

Tests used:
Assay in all cases: HPLC-UV and LC-MS product detection
Assay type in all cases: biochemical
CnqP6 = target: T1, CnqP6 (Streptomyces sp. CNQ-509, UniProt A0A0F7N6A5); details: […] °C, […] h
T1 construct: gene AA958_12635; full-length, 300 aa; N-terminal His8 tag (pHis8) kept; E. coli Rosetta2(DE3)pLysS

CnqP3 = target: T2, CnqP3 (Streptomyces sp. CNQ-509, UniProt A0A0F7NDP3); details: […] °C, […] h
T2 construct: gene AA958_24325; full-length, 305 aa; N-terminal His8 tag (pHis8) kept; E. coli Rosetta2(DE3)pLysS

CnqP4 = target: T3, CnqP4 (Streptomyces sp. CNQ-509, UniProt A0A0F7NDN9); details: […] aromatic substrate, […] GPP, […] MgCl2, Tris-HCl pH […] °C, […] h
T3 construct: gene AA958_24270; full-length, 303 aa; N-terminal His8 tag (pHis8) kept; E. coli Rosetta2(DE3)pLysS

[1] = […] aromatic substrate, […] GPP, […] MgCl2, Tris-HCl pH […]

T1 sequence (A0A0F7N6A5 1-300): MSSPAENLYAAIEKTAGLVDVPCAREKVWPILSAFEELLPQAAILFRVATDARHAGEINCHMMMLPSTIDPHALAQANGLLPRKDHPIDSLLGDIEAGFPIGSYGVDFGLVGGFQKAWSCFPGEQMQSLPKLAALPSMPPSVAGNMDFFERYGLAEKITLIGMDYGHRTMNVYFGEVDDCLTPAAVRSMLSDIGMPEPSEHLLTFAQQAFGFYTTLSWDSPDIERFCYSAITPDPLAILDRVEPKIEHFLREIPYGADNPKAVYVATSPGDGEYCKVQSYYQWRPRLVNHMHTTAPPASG
T2 sequence (A0A0F7NDP3 1-305): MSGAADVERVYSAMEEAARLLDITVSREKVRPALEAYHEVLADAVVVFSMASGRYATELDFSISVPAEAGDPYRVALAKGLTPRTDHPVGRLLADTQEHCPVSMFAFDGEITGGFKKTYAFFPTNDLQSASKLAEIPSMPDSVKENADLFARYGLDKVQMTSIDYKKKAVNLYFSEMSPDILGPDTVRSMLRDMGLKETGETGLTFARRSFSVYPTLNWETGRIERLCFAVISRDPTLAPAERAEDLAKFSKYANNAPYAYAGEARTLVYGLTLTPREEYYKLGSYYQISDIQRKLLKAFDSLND
T3 sequence (A0A0F7NDN9 1-303): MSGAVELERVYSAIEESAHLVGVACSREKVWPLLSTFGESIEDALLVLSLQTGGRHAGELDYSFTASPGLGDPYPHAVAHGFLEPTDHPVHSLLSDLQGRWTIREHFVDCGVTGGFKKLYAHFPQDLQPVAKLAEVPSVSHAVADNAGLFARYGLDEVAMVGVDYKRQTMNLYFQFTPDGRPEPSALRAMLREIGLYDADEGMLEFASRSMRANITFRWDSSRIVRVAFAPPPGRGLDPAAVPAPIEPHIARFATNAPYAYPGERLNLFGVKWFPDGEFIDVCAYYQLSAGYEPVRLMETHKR

## O=c1c(-c2ccc(O)cc2)coc2cc(O)cc(O)c12 [genistein]
CnqP6; [1]
  HPLC-UV and LC-MS product detection: genistein was converted with GPP by the prenyltransferases CnqP2, CnqP3 and CnqP6

## O=C1C(O)=CC(=O)c2c(O)cc(O)cc21 [flaviolin]
CnqP3; [1]
  HPLC-UV and LC-MS product detection: Only CnqP3 accepted flaviolin as a substrate.

## Oc1ccc2ccc(O)cc2c1 [2,7-DHN]
CnqP4
  HPLC-UV and LC-MS product detection: we found monogeranylated products for CnqP2, CnqP3 and CnqP4

## CC(C)=CCC/C(C)=C/COP(=O)(O)OP(=O)(O)O [GPP]
CnqP6; with genistein ([…]), […] GPP, […] MgCl2, Tris-HCl pH […]
  HPLC-UV and LC-MS product detection: genistein was converted with GPP by the prenyltransferases CnqP2, CnqP3 and CnqP6
CnqP3; with flaviolin ([…]), […] GPP, […] MgCl2, Tris-HCl pH […]
  HPLC-UV and LC-MS product detection: Incubation with GPP resulted in the production of a new compound
